# Experimental data as given in ChEMBL document CHEMBL3507680, “University of Dundee, Gates Library screen for HepG2 cell viability”.
# Test: Human HepG2 cell viability assay in 384 well format
# Type: toxicity, cell-based
# Design: dose 125 nL, time 70.5 hour; cytotoxicity at 70.5 h: concentration not given beside the values
# Settings: HepG2 cells, read-out: Inhibition
row,SMILES,cytotoxicity at 70.5 h [%]
1,COc1cccc2c(=O)n(Cc3nc(C)cc(O)n3)cnc12,-12.5
2,Cc1ccc(N2CCCN(C(=O)C3(C#N)CCCCC3)CC2)nn1,-0.352
3,CCC(C)(CC(=O)OC)NC(=O)c1cccc(F)c1F (stereo not drawn),-14.7
4,CCn1nc2c(cc1=O)CN(CC(=O)Nc1nncs1)CC2,-10.2
5,COCCN1CCC2(CCC1=O)CN(c1ccnc(SC)n1)CCN2C (stereo not drawn),-4.09
6,CCN1CCc2[nH]cnc2C12CCN(C(=O)CCCn1cncn1)CC2,-1.47
7,COCC(=O)N1Cc2ccnn2CC(COCCN(C)C)C1 (stereo not drawn),-3.25
8,Cn1c(C2CC2)nc2cc(NC(=O)C3CC=CC3)ccc21,-5.03
9,Cc1ccccc1-c1cncc(C2CCN(CCO)CC2)n1,-8.45
10,O=C1CC(c2ccc(C(F)(F)F)cc2)c2snc(C(=O)O)c2N1 (stereo not drawn),-15.6
11,c1ccc(OC2COC3(CCN(Cc4ccccn4)CC3)C2)cc1 (stereo not drawn),25.2
12,O=C(COCC1CC1)Nc1ccn(Cc2cccc3cccnc23)n1,-1.28
13,OCCn1nccc1C1CCN(CCOc2cccc(F)c2)CC1,-1.45
14,O=C1Nc2ccccc2CC12CCCN2Cc1ccccn1 (stereo not drawn),29.1
15,Cc1ccc(CNC(CN2CCN(C)CC2)c2ccccc2)cc1 (stereo not drawn),3.21
16,Cc1ccc(C(=O)N2CCOC3(CCCC3)C2)c(=O)[nH]1,-41.7
17,Cc1cc(CNc2ccccc2Cl)no1,-13.4
18,CCCS(=O)(=O)N1CC(=O)N(Cc2cccc(OC)c2OC)CC(O)C1 (stereo not drawn),9.04
19,OC(c1ccccc1)C1CCN(Cc2csc(-c3ncccn3)n2)CC1 (stereo not drawn),-7.96
20,CCCc1ncc(C(=O)N2CCOC(c3nc(C)n[nH]3)C2)s1 (stereo not drawn),-7.33
21,Cc1cc(C(=O)NCC2COCc3c(C)nnn3C2)no1 (stereo not drawn),-6.83
22,O=C(c1ccc(O)c(Cl)c1)N1CCN(c2nccs2)CC1,-9.18
23,Cc1ncnc2c1CCN(C(=O)Cc1ccccn1)CC2,-12.9

row,SMILES,cytotoxicity at 70.5 h [%]
1,CC(C)C(=O)Nc1cccc(C(=O)Nc2ccccn2)c1,-25.2
2,O=C(Nc1ccccc1)c1cccc(S(=O)(=O)NC[C@@H]2C[C@H](F)CN2)c1,6.01
3,Clc1ccc(NCc2nnc(C3CC3)o2)cc1Cl,24.8
4,CCN1CC2(CC1=O)CN(C(=O)C(C)C)CCN(S(=O)(=O)CC)C2 (stereo not drawn),-4.9
5,CCCNC(=O)c1cc(C2CCCN(Cc3ccccn3)C2)no1 (stereo not drawn),21.2
6,COc1ccc(C(C(=O)O)N2CCC(O)(c3cccnc3)CC2)cc1Cl (stereo not drawn),-9.89
7,CC1CCN(C(=O)[C@@H]2C[C@@H]3CCN(Cc4nccs4)C[C@H]3O2)CC1,-6.62
8,CCS(=O)(=O)c1ccc(N2CCC(N)CC2)cc1,-1.97
9,CCOc1ccc(NC(=O)NCC(C)(O)c2cccs2)cc1 (stereo not drawn),-8.04
10,Cc1nc(NCc2ccccc2)cc(C(C)Cn2nc(C)c(C)c2C)n1 (stereo not drawn),3.51
11,COC(=O)[C@@H]1C[C@H](NC(=O)Cn2c(=O)cc(C)c3ccccc32)CN1C,26.6
12,CC(C)c1nccn1CCCNC(=O)c1ccc(-c2cnn(C)c2)nc1,-5.24
13,Cc1nc(-c2ccc(F)cc2)cc(C2CCNCC2)n1,-10
14,CNC(=O)CN(C(=O)c1ccc(SC)o1)c1cccc(F)c1,-0.365
15,CCCNC(=O)c1nc2c(o1)CN(C(C)=O)C2,-9.4
16,Cc1noc([C@]23COC[C@H]2CN(C(=O)CN(C)C)C3)n1,-4.74
17,O=c1c(Cc2ccccc2)c(O)ccn1Cc1cccs1,23.3
18,COc1ccccc1CN1C(=O)O[C@@H]2CN(c3nccs3)C[C@@H]21,1.12
19,CCCNC(=O)C1CCN(Cc2csc(CC)n2)CC1,0.277
20,CC(=O)N1CCC(C(=O)NCCc2c[nH]c3cc(C)ccc23)CC1,16.1
21,CN1CCC2(Cc3ccccc3CN(C(=O)c3ccc(Cl)cc3)C2)C1 (stereo not drawn),35.9
22,COc1c(C)cnc(CSc2nnc(N)s2)c1C,-3.12
23,OCCOCc1nnn2c1CN(c1ncccn1)CCC2,8.18

row,SMILES,cytotoxicity at 70.5 h [%]
1,Cc1cc(C[C@@H]2CCC[C@H]2NCc2cc(F)ccc2F)on1,-1.78
2,CC1CCN(Cc2c(C(C)C)[nH]c3ncccc23)CC1,-8.35
3,O=C(c1ccno1)N1CC[C@@H]2CN(C3CCOCC3)CCO[C@@H]2C1,-5.94
4,O=C(CN1CCC(c2cccc(F)c2)C1)NCc1ccco1 (stereo not drawn),59.3
5,COc1ccc(CC(=O)N2CCc3nnc(N(C)C)cc3C2)cc1F,-2.52
6,CCCNC(=O)C1CCN(Cc2csc(C(C)C)n2)CC1,16.4
7,Nc1ccnn1C1CCN(Cc2ccccc2)C1 (stereo not drawn),2.28
8,Cc1nnsc1C(=O)NCc1nn(C)c2c1COCC2,-13.8
9,c1cc(-c2ccc3c(c2)CCC32CCN(c3nncs3)CC2)ccn1,-2.69
10,O=C(NCc1cccnc1)C1=NOC2(CCN(S(=O)(=O)C3CC3)C2)C1 (stereo not drawn),-10.8
11,O=C(c1ccc2[nH]ccc2c1)N1CCCSCC1CN1CCCC1 (stereo not drawn),-2.63
12,CN1CCC2(CC1)CN(C(=O)c1onc3ccccc13)CCCN2C,26.8
13,CCCn1[nH]cc/c1=N\C(=O)CN1CCCC1Cn1nc(C)nc1C (stereo not drawn),-1.59
14,O=C1CCCN1c1cccc(CNCc2nc(-c3ccco3)no2)c1,-17.4
15,CS(=O)(=O)NCCCNC(=O)NCc1ccccc1,-8.73
16,O=C(Nc1cn[nH]c1)N1CCCCCC1c1ccncc1 (stereo not drawn),-8.75
17,c1ccc2c(c1)CC(Cc1cc(N3CCCC3)cnn1)CCO2 (stereo not drawn),2.31
18,O=C(O)c1ccc(=O)n(CC(c2ccc(F)cc2)N2CCCCCC2)c1 (stereo not drawn),-7.77
19,CCc1n[nH]c(C2CN(C(=O)c3cc4c(s3)CCC4)CCO2)n1 (stereo not drawn),-4.28
20,CCC[C@@H]1CN(Cc2c[nH]nc2-c2ccc(OC)cc2)C[C@H]1NC(C)=O,-7.5
21,Fc1ccc2[nH]c(CO[C@H]3CN(CC4CC4)C[C@H]3F)nc2c1,1.66
22,O=C(O)c1ccc(CC2CCN(S(=O)(=O)N3CCOCC3)C2)cc1 (stereo not drawn),-5.44
23,CN(C)C(=O)c1ccc2c(c1)nc(N1CC[C@H](O)C1)n2C,19.5

row,SMILES,cytotoxicity at 70.5 h [%]
1,Cc1cnc2n(c1=O)C(CC(=O)NCc1ccc(F)cc1)CS2 (stereo not drawn),-6.08
2,CC1(C)CN(Cc2ccncc2)CCS1(=O)=O,24.1
3,CCS(=O)(=O)c1ncc(CN2CCN(C)CC2)n1CCc1ccccc1,-3.88
4,CCC(CNC(=O)c1ccc(=O)[nH]n1)N1CCc2ccccc2C1 (stereo not drawn),-10.3
5,COCCN1CCC(CNC(=O)C2(c3ccc(Br)cc3)CCCC2)C1 (stereo not drawn),-0.291
6,CC(=O)Nc1nc(C(=O)NC(C)c2ccc(F)cc2)cs1 (stereo not drawn),-13.6
7,CC(C)c1nccn1C1CCCN(C(=O)CCCc2ccccn2)C1 (stereo not drawn),-10.5
8,CN(Cc1cnn(C)c1)C(=O)C1CCCN1Cc1ccccn1 (stereo not drawn),26.2
9,Cc1ncc2c(n1)C1(CCN(C(=O)C3CC3)CC1)OCC2,-9.75
10,Cc1cc(NC(=O)CN2CCCC2c2noc(C)n2)n(C(C)(C)C)n1 (stereo not drawn),-7.96
11,O=c1nc(SCc2cccnc2)c2c(n1CCO)CCCC2,-11
12,Cc1ccc(N2CC[C@]3(O)CCN(CCN4CCCC4=O)C[C@@H]3C2)nn1,0.21
13,Cc1cc(C)n(CC2CCCN2C(=O)c2c(C)noc2C)n1 (stereo not drawn),18.5
14,Cc1ccc(-c2nc(CN3CCOC(Cn4cccn4)C3)no2)cc1 (stereo not drawn),-4.16
15,COCCn1ccc2c(C(=O)NC(C)C)cccc21,-12.3
16,N#Cc1c(Cl)nsc1NCCCN1C(=O)COc2ccccc21,8.75
17,CN(Cc1cnn(C)c1)c1nccc(-c2cc(C(=O)O)ccn2)n1,18.1
18,Cc1cc(CN2CCN(c3ccnc(-c4ccccc4)n3)CC2)no1,-4.67
19,CCOCCCNC(=O)C1(C)CCC(=O)N1Cc1ccccc1F (stereo not drawn),0.95
20,COCc1ncc(CN2CC[C@@H](NC(=O)c3cccnc3)[C@H](O)C2)cn1,20.2
21,NCC1Cn2nnc(-c3cccc(F)c3)c2CO1 (stereo not drawn),-4.77
22,CCCn1cc(C(=O)NCc2nnc(-c3ccc(C)nc3)o2)c(C)n1,-1.21
23,CCC(Nc1cccc(OC)c1)C(=O)NCc1nc(C)cc(=O)[nH]1 (stereo not drawn),-5.76

row,SMILES,cytotoxicity at 70.5 h [%]
1,CC(C)Oc1ncccc1CNC(=O)c1cc(C2CC2)on1,16
2,O=C(CCc1nnc(-c2ccccc2)o1)N1CCCC1c1ccc[nH]1 (stereo not drawn),-3.43
3,Cc1ccc2nc(C(=O)N3CC(n4nc(C)cc4C)C3)cn2c1,-9.46
4,Cc1cnc(-c2nc(NC3CC3)ncc2-c2cc(C)no2)cn1,12
5,Cn1cc(C(=O)NCC(Cc2cccc(F)c2)N2CCCCC2=O)nn1 (stereo not drawn),-14.8
6,CNc1nc(C(=O)N2CCCC(CO)(CCCOC)C2)cs1 (stereo not drawn),-4.71
7,Cc1ccc(CC(=O)N2CCCCC2Cn2cccn2)cn1 (stereo not drawn),-0.224
8,Cc1nc(C)n(C2CCCN(C(=O)c3ccc4c(c3)COC4)C2)n1 (stereo not drawn),0.389
9,CC(=O)Nc1nc(C(=O)NCc2ccc(N3CCCCC3)cc2)cs1,-3.91
10,CN1C[C@@H](C(=O)N2CCOCC2)[C@@]2(CCc3ccccc3C(=O)N2)C1,-1.75
11,Cc1nc(NC(=O)C(C)S(C)(=O)=O)sc1Cc1ccccc1F (stereo not drawn),-7.43
12,CCOC[C@H]1CC[C@H]2[C@H](CCN2C(=O)c2ccncc2F)O1,-8.92
13,Cc1ccc2ncccc2c1CN1CC[C@H](N(C)C)[C@H](CCC(=O)O)C1,-7.41
14,Cc1ccc(-c2nnc(CNCCn3cc(C)cn3)o2)cc1,-18.3
15,COc1cccc(S(=O)(=O)CCNCCn2cccn2)c1,-10.6
16,O=C1CCCC2=C1C(c1cc(Cl)ccc1F)Nc1nonc1N2 (stereo not drawn),9.69
17,Cc1nc(Cn2cncc(Br)c2=O)no1,6.27
18,Cc1[nH]ccc1C(=O)N1C[C@H]2CC[C@@H]1CN(S(=O)(=O)N(C)C)C2,-6.98
19,COCC(=O)N[C@H]1C[C@@H](Cc2cc(CN3CCOCC3)on2)C1(C)C,11.2
20,NC(=O)C1CCCN(c2ccc(CNC(=O)c3cnsn3)cc2)C1 (stereo not drawn),-7.99
21,Cc1cc(C)c(CNC(=O)N(C)Cc2ccc(F)cc2)c(=O)[nH]1,18.3
